Test results published in ChEMBL document CHEMBL1134264, “Identification of a subtype selective human PPARalpha agonist through parallel-array synthesis” (Bioorg Med Chem Lett, 2001).
Values joined by “and” are separate entries in the source; they are usually repeats but may differ in a detail not shown here. Identical values can stand only once. Active and inactive are the calls of the source. The rule behind the calls is not given here.

Tests used:
[1] = target: T1, Peroxisome proliferator-activated receptor alpha (Homo sapiens, UniProt Q07869)
T1 sequence (Q07869 whole entry): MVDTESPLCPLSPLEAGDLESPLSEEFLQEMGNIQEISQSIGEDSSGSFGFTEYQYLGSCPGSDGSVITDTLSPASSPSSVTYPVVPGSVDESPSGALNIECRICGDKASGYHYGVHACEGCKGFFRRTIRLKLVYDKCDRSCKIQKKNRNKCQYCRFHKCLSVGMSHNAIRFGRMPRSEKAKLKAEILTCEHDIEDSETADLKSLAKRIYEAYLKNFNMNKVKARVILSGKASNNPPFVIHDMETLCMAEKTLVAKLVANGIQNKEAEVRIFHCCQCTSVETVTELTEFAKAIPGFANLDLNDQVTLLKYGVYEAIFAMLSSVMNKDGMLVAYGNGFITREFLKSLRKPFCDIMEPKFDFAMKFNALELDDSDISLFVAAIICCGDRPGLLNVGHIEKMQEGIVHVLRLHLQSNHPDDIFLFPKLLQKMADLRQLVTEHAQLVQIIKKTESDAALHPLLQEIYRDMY
Description: In vitro transcriptional activation in CV-1 cells expressing human Gal4-PPAR alpha ligand binding domain

Cricetinae gen. sp. [2] = experiment: In vivo triglyceride lowering activity in fat-fed hamsters at a dose of 3 mg/kg, po for 7 days; not active; format: functional, organism-based; set-up: dose 3 mg/kg; conditions: Cricetulus griseus
[3] = target: T2, Peroxisome proliferator-activated receptor gamma (Homo sapiens, UniProt P37231); experiment: In vitro transcriptional activation in CV-1 cells expressing human Gal4-PPAR gamma ligand binding domain; format: cell-based
T2 sequence (P37231 whole entry): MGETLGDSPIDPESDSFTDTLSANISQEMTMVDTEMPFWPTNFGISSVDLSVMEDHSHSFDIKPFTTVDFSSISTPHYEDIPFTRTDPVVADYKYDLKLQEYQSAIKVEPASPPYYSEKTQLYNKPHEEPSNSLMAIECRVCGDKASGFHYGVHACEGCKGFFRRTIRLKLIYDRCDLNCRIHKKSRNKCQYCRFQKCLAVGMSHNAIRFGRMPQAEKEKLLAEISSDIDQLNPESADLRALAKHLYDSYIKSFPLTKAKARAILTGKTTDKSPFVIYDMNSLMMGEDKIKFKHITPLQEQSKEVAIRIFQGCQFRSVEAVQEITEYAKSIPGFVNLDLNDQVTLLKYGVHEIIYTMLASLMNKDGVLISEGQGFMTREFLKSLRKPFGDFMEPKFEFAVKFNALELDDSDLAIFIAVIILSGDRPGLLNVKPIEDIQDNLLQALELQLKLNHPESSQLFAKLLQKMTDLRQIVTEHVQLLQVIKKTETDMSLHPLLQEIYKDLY

[4] = target: T3, Peroxisome proliferator-activated receptor delta (Homo sapiens, UniProt Q03181); experiment: In vitro transcriptional activation in CV-1 cells expressing human Gal4-PPAR delta ligand binding domain; format: cell-based
T3 sequence (Q03181 whole entry): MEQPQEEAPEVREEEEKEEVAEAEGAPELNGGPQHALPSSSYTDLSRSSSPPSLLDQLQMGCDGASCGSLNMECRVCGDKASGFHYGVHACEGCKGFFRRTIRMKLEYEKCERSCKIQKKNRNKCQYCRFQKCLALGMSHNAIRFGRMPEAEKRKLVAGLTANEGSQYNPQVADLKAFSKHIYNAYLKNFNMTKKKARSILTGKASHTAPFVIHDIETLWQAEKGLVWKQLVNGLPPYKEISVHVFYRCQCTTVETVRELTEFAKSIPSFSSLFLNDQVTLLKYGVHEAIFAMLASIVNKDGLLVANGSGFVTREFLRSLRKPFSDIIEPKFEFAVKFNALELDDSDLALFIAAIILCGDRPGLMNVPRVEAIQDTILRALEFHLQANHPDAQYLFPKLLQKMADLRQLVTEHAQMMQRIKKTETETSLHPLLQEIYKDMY

Cricetinae gen. sp. [5] = experiment: In vivo triglyceride lowering activity in fat-fed hamsters at a dose of 3 mg/kg, po for 7 days; format: functional
Rattus norvegicus [6] = experiment: In vivo increase in HDL cholesterol in cholesterol/cholic acid fed rats at 3 mg/kg peroral dose for 4 days; format: functional; conditions: route oral
Rattus norvegicus [7] = experiment: In vivo decrease in serum apolipoprotein CIII in cholesterol/cholic acid fed rats at 3 mg/kg peroral dose for 4 days; format: functional; set-up: scale not given: the % may be the effect or the level left; conditions: route oral
Rattus norvegicus [8] = experiment: In vivo triglyceride lowering activity in cholesterol/cholic acid fed rats at 3 mg/kg peroral dose for 4 days; format: functional; conditions: route oral

With `CC(C)(Sc1ccc(CCN(CCc2ccc(-c3ccccc3)cc2)C(=O)Nc2cc(Cl)cc(Cl)c2)cc1)C(=O)O` the EC50 [1] was 50 nM, the Activity (Cricetinae gen. sp. [2]) was “inactive” and the EC50 [3] was 2000 nM. It also gave an EC50 [4] greater than 10000 nM.

For `CC(C)c1ccc(NC(=O)N(CCc2ccc(SC(C)(C)C(=O)O)cc2)CCc2ccc(-c3ccccc3)cc2)cc1`, the EC50 [1] was 17 nM and 20 nM, the Activity (Cricetinae gen. sp. [2]) was “inactive” and the EC50 [3] was 8500 nM and 1400 nM. The EC50 [4] was > 10000 nM and 2000 nM.

Compound `CC(C)(Sc1ccc(CCN(CCc2ccc(-c3ccccc3)cc2)C(=O)NC2CCCCC2)cc1)C(=O)O` has an EC50 [1] of 8 nM, an Activity (Cricetinae gen. sp. [5]) of -70% and an EC50 [3] of 2400 nM. It also gave an EC50 [4] of 5000 nM.

Work on `Cc1ccc(NC(=O)N(CCCCC2CCCCC2)CCc2ccc(SC(C)(C)C(=O)O)cc2)cc1[N+](=O)[O-]` yielded an EC50 [1] of 20 nM, an Activity (Cricetinae gen. sp. [5]) of -78% and an EC50 [3] of 2000 nM. It also gave an EC50 [4] greater than 10000 nM.

In the case of `COc1ccccc1NC(=O)N(CCCCC1CCCCC1)CCc1ccc(SC(C)(C)C(=O)O)cc1`, the EC50 [1] is reported as 5 nM, the Activity (Cricetinae gen. sp. [2]) is reported as “inactive” and the EC50 [3] is reported as 320 nM. The EC50 [4] was 1100 nM.

With `COc1ccc(NC(=O)N(CCc2ccc(SC(C)(C)C(=O)O)cc2)CCc2ccc(-c3ccccc3)cc2)c(OC)c1` the EC50 [1] was 6 nM, the Activity (Cricetinae gen. sp. [2]) was “inactive” and the EC50 [3] was 1200 nM. It also gave an EC50 [4] of 4000 nM.

For `Cc1cc(C)c(NC(=O)N(CCc2ccc(SC(C)(C)C(=O)O)cc2)CCc2ccc(-c3ccccc3)cc2)cc1C`, the EC50 [1] was 9 nM, the Activity (Cricetinae gen. sp. [2]) was “inactive” and the EC50 [3] was 1350 nM. It also gave an EC50 [4] greater than 10000 nM.

`CC(C)(Sc1ccc(CCN(CCCCC2CCCCC2)C(=O)NC2CCCCC2)cc1)C(=O)O` [GW7647] showed an Activity (Cricetinae gen. sp. [5]) of -93%, an Activity (Rattus norvegicus [6]) of 60% and an Activity (Rattus norvegicus [7]) of 40%. For the same compound, the Activity (Rattus norvegicus [8]) was 60%.

`CCCCCCCN(CCc1ccc(SC(C)(C)C(=O)O)cc1)C(=O)Nc1ccc(F)cc1F` [GSK-9578] was tested, and the Activity (Cricetinae gen. sp. [5]) was -88%.

Work on `COc1ccc(C)cc1NC(=O)N(CCc1ccc(SC(C)(C)C(=O)O)cc1)CCc1ccc(-c2ccccc2)cc1` yielded an EC50 [1] of 100 nM, an Activity (Cricetinae gen. sp. [5]) of -33% and an EC50 [3] of 10000 nM. It also gave an EC50 [4] greater than 10000 nM.

In the case of `CC(C)(Sc1ccc(CCN(CCCCC2CCCCC2)C(=O)Nc2cc(Cl)cc(Cl)c2)cc1)C(=O)O`, the EC50 [1] is reported as 1 nM, the Activity (Cricetinae gen. sp. [2]) is reported as “inactive” and the EC50 [3] is reported as 1000 nM. It also gave an EC50 [4] greater than 10000 nM.

`CC(C)(Sc1ccc(CCN(CCCCC2CCCCC2)C(=O)Nc2cccc(C#N)c2)cc1)C(=O)O` was tested, and the EC50 [1] was 9 nM, the Activity (Cricetinae gen. sp. [5]) was -69% and the EC50 [3] was 1000 nM. The EC50 [4] was greater than 10000 nM.
